Species: Rattus norvegicus
Test: Open TG-GATES - Regimen: Single
Type: toxicity, organism-based, Sprague-Dawley
Design: regimen Single, gender Male, age 6 weeks
Details: in vivo, po, 0 mg/kg, route gavage, dose level Control; for APTT / Bas / Eos / Fbg / Hb / Ht / Lym / MCH / MCHC / MCV / Mono / Neu / PT / Plat / RBC / Ret / WBC: tissue Blood; for A/G / ALP / ALT / AST / BUN / CRE / Ca / Cl / DBIL / GLC / IP / K / LDH / Na / PL / RALB / TBIL / TC / TG / TP / gamma-GTP: tissue Plasma

Cn1cc[nH]c1=S [METHIMAZOLE]
TERMINAL_BW (3 h): 207.3 g | APTT (3 h): 20.3 s | Bas (3 h): 0% | Eos (3 h): 0.4% | Fbg (3 h): 292.4 mg/dL | Hb (3 h): 13.6 g/dL | Ht (3 h): 38.8% | Lym (3 h): 82.4% | MCH (3 h): 22.3 pg | MCHC (3 h): 35.1% | MCV (3 h): 63.5 fL | Mono (3 h): 1.8% | Neu (3 h): 14.6% | PT (3 h): 15.8 s | Plat (3 h): 122.5 x10_4/uL | RBC (3 h): 612 x10_4/ul | Ret (3 h): 8.6% | WBC (3 h): 96.4 x10_2/uL | A/G (3 h): 1.3 | ALP (3 h): 1879.2 IU/L | ALT (3 h): 44.4 IU/L | AST (3 h): 75.8 IU/L | BUN (3 h): 14.4 mg/dL | CRE (3 h): 0.2 mg/dL | Ca (3 h): 10.6 mg/dL | Cl (3 h): 106.8 meq/L | DBIL (3 h): 0.002 mg/dL | GLC (3 h): 190.6 mg/dL | IP (3 h): 8.2 mg/dL | K (3 h): 4.1 meq/L | LDH (3 h): 186.8 IU/L | Na (3 h): 142 meq/L | PL (3 h): 143.6 mg/dL | RALB (3 h): 3 g/dL | TBIL (3 h): 0.02 mg/dL | TC (3 h): 84 mg/dL | TG (3 h): 55.6 mg/dL | TP (3 h): 5.4 g/dL | gamma-GTP (3 h): 1 IU/L | TERMINAL_BW (6 h): 210.9 g | APTT (6 h): 21.9 s | Bas (6 h): 0% | Eos (6 h): 0.8% | Fbg (6 h): 287.6 mg/dL | Hb (6 h): 13.5 g/dL | Ht (6 h): 38.4% | Lym (6 h): 82% | MCH (6 h): 22.3 pg | MCHC (6 h): 35.1% | MCV (6 h): 63.6 fL | Mono (6 h): 2.6% | Neu (6 h): 13.8% | PT (6 h): 16 s | Plat (6 h): 117.7 x10_4/uL | RBC (6 h): 605 x10_4/ul | Ret (6 h): 9.1% | WBC (6 h): 103.6 x10_2/uL | A/G (6 h): 1.2 | ALP (6 h): 1447.2 IU/L | ALT (6 h): 47.2 IU/L | AST (6 h): 77.4 IU/L | BUN (6 h): 10.8 mg/dL | CRE (6 h): 0.1 mg/dL | Ca (6 h): 10.6 mg/dL | Cl (6 h): 106.4 meq/L | DBIL (6 h): 0 mg/dL | GLC (6 h): 185 mg/dL | IP (6 h): 9.7 mg/dL | K (6 h): 4.4 meq/L | LDH (6 h): 228 IU/L | Na (6 h): 141.8 meq/L | PL (6 h): 141.6 mg/dL | RALB (6 h): 3 g/dL | TBIL (6 h): 0.022 mg/dL | TC (6 h): 79.4 mg/dL | TG (6 h): 54.2 mg/dL | TP (6 h): 5.4 g/dL | gamma-GTP (6 h): 1 IU/L | TERMINAL_BW (9 h): 203.8 g | APTT (9 h): 21.7 s | Bas (9 h): 0% | Eos (9 h): 0.8% | Fbg (9 h): 302.2 mg/dL | Hb (9 h): 13.4 g/dL | Ht (9 h): 38.7% | Lym (9 h): 81.6% | MCH (9 h): 22 pg | MCHC (9 h): 34.7% | MCV (9 h): 63.4 fL | Mono (9 h): 2.2% | Neu (9 h): 14.8% | PT (9 h): 16 s | Plat (9 h): 119.6 x10_4/uL | RBC (9 h): 610 x10_4/ul | Ret (9 h): 7.7% | WBC (9 h): 102.4 x10_2/uL | A/G (9 h): 1.1 | ALP (9 h): 1453.2 IU/L | ALT (9 h): 40.2 IU/L | AST (9 h): 68.8 IU/L | BUN (9 h): 11.4 mg/dL | CRE (9 h): 0.1 mg/dL | Ca (9 h): 10.4 mg/dL | Cl (9 h): 106 meq/L | DBIL (9 h): 0.002 mg/dL | GLC (9 h): 184.2 mg/dL | IP (9 h): 9.8 mg/dL | K (9 h): 4.1 meq/L | LDH (9 h): 181.8 IU/L | Na (9 h): 141.6 meq/L | PL (9 h): 136.8 mg/dL | RALB (9 h): 2.9 g/dL | TBIL (9 h): 0.014 mg/dL | TC (9 h): 73 mg/dL | TG (9 h): 75.6 mg/dL | TP (9 h): 5.5 g/dL | gamma-GTP (9 h): 1.2 IU/L | TERMINAL_BW (24 h): 225.5 g | APTT (24 h): 21.4 s | Bas (24 h): 0% | Eos (24 h): 1% | Fbg (24 h): 315 mg/dL | Hb (24 h): 13.7 g/dL | Ht (24 h): 38.8% | Lym (24 h): 78% | MCH (24 h): 22.1 pg | MCHC (24 h): 35.3% | MCV (24 h): 62.5 fL | Mono (24 h): 2.8% | Neu (24 h): 17.4% | PT (24 h): 15.7 s | Plat (24 h): 124.5 x10_4/uL | RBC (24 h): 621.4 x10_4/ul | Ret (24 h): 8.2% | WBC (24 h): 97.4 x10_2/uL | A/G (24 h): 1.1 | ALP (24 h): 1887.6 IU/L | ALT (24 h): 42.8 IU/L | AST (24 h): 69 IU/L | BUN (24 h): 15.8 mg/dL | CRE (24 h): 0.1 mg/dL | Ca (24 h): 11 mg/dL | Cl (24 h): 104.6 meq/L | DBIL (24 h): 0 mg/dL | GLC (24 h): 180.6 mg/dL | IP (24 h): 7.6 mg/dL | K (24 h): 4.2 meq/L | LDH (24 h): 183.2 IU/L | Na (24 h): 142.4 meq/L | PL (24 h): 156.6 mg/dL | RALB (24 h): 2.9 g/dL | TBIL (24 h): 0.004 mg/dL | TC (24 h): 77.8 mg/dL | TG (24 h): 120.4 mg/dL | TP (24 h): 5.6 g/dL | gamma-GTP (24 h): 1 IU/L
